Structures are written as SMILES.

Holding throughout (format): in vivo
Assay [1] concerns oilseed rape (Brassica napus). Kind of assay: Test C pre-/postemergence greenhouse test, plant response rating 0-100. The gist of the method:
(§1)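 Seeds were sown in a loam soil–sand blend and sprayed preemergence with test chemicals in a non-phytotoxic solvent mixture containing surfactant; postemergence plants in peat/vermiculite medium were treated at 2–18 cm (1- to 4-leaf stage). After 13 to 15 days in the greenhouse, injury was rated visually against untreated controls.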

Assay [2] deals with waterhemp (common waterhemp, Amaranthus rudis). The assay is described as above. The essentials:
as §1

The subject of assay [3] is barnyardgrass (Echinochloa crus-galli). The assay is described as above. The gist of the method: as §1
In assay [4] the test system is cocklebur (common cocklebur, Xanthium strumarium). Kind of assay: Test C postemergence greenhouse test, plant response rating 0-100. As to conditions: for Plant response rating, Cocklebur: scale 0 to 100. The essentials: (§2)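 Response is a visual 0–100 control rating taken 13 to 15 days post-treatment, with a dash marking no result. Plants ranged 2 to 18 cm when treated postemergence.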

In assay [5] the test system is bermudagrass (Cynodon dactylon). Described as above. As to conditions: for Plant response rating, Bermudagrass: scale 0 to 100. The gist of the method: as §2
For assay [6], the system named is surinam grass (Brachiaria decumbens). Described as above. Conditions: for Plant response rating, Surinam Grass: scale 0 to 100. The essentials: as §2
Setting [7] is: Postemergence, 250 g ai/ha, scale 0 to 100.
Setting [8] is: Postemergence, 500 g ai/ha, scale 0 to 100.
The mark [9] stands for this setting: Postemergence, 125 g ai/ha, scale 0 to 100.

In the case of `COC(OC)(c1ccccc1)c1c[nH]nc1-c1cc(Cl)cc(Cl)c1` [Compound 13, 3-(3,5-dichlorophenyl)-4-(dimethoxyphenylmethyl)-1H-pyrazole], the “Plant response rating (0 to 100), Oilseed Rape” value in assay [1] (Postemergence, 62 g ai/ha) was 40; in assay [1] (Postemergence, 125 g ai/ha) it was 55. In addition, the “Plant response rating, Oilseed Rape” value in assay [1] (setting [7]) is given as 50; in assay [1] (setting [8]), 70; in assay [1] (Preemergence, 62 g ai/ha) it was 50; in assay [1] (Preemergence, 125 g ai/ha) it was 20; in assay [1] (Preemergence, 250 g ai/ha), 30; in assay [1] (Preemergence, 500 g ai/ha) it was 98. For the same compound, the “Plant response rating (0 to 100), Waterhemp” value in assay [2] (Postemergence, 62 g ai/ha) amounted to 100; in assay [2] (Postemergence, 125 g ai/ha), 100. The “Plant response rating, Waterhemp” value in assay [2] (setting [7]) is 100; in assay [2] (setting [8]), 100; in assay [2] (Preemergence, 62 g ai/ha), 100; in assay [2] (Preemergence, 125 g ai/ha), 100; in assay [2] (Preemergence, 250 g ai/ha) it was 100; in assay [2] (Preemergence, 500 g ai/ha) it was 100. The “Plant response rating (0 to 100), Barnyardgrass” value in assay [3] (Postemergence, 62 g ai/ha) is recorded as 0. Further, the “Plant response rating, Barnyardgrass” value is 0 in assay [3] (setting [9]); 0 in assay [3] (setting [7]); 0 in assay [3] (setting [8]); 0 in assay [3] (Preemergence, 62 g ai/ha); 0 in assay [3] (Preemergence, 125 g ai/ha); 0 in assay [3] (Preemergence, 250 g ai/ha). In addition, the “Plant response rating, Barnyardgrass” value in assay [3] (Preemergence, 500 g ai/ha) was 0.

In the case of `CCCn1cc(C(=O)c2ccccc2)c(-c2cc(Cl)cc(Cl)c2)n1` [Compound 61, [3-(3,5-dichlorophenyl)-1-propyl-1H-pyrazol-4-yl]phenylmethanone], the “Plant response rating (0 to 100), Cocklebur” value in assay [4] (31 g ai/ha) is given as 10; in assay [4] (62 g ai/ha) it was 10; in assay [4] (125 g ai/ha), 20. Also, the “Plant response rating, Cocklebur” value in assay [4] (250 g ai/ha) was 35. For the same compound, the “Plant response rating (0 to 100), Bermudagrass” value is reported as 0 in assay [5] (31 g ai/ha), 5 in assay [5] (62 g ai/ha) and 5 in assay [5] (125 g ai/ha). Further, the “Plant response rating, Bermudagrass” value in assay [5] (250 g ai/ha) came to 5. The “Plant response rating (0 to 100), Surinam Grass” value in assay [6] (62 g ai/ha) and in assay [6] (125 g ai/ha) was 0 throughout. Further, the “Plant response rating, Surinam Grass” value in assay [6] (250 g ai/ha) is reported as 0.

Regarding `Clc1cc(Cl)cc(-c2n[nH]cc2C(=NNc2ccccc2Cl)c2ccccc2)c1` [Compound 66], the “Plant response rating (0 to 100), Cocklebur” value was 40 in assay [4] (62 g ai/ha) and 90 in assay [4] (125 g ai/ha). Further, in assay [4] (500 g ai/ha), the “Plant response rating, Cocklebur” value amounted to 90. Moreover, the “Plant response rating (0 to 100), Bermudagrass” value in assay [5] (62 g ai/ha) and in assay [5] (125 g ai/ha) was 0 each time. Besides, the “Plant response rating, Bermudagrass” value in assay [5] (250 g ai/ha) and in assay [5] (500 g ai/ha) was 0 throughout. The “Plant response rating (0 to 100), Surinam Grass” value in assay [6] (62 g ai/ha) and in assay [6] (125 g ai/ha) was 0 in each case. Moreover, the “Plant response rating, Surinam Grass” value in assay [6] (250 g ai/ha) and in assay [6] (500 g ai/ha) was 0 each time.

For `Cn1cc(C(=O)c2ccccc2)c(-c2cc(Br)cc(Br)c2)n1` [Compound 53], the “Plant response rating (0 to 100), Cocklebur” value amounted to 5 in assay [4] (62 g ai/ha) and 10 in assay [4] (125 g ai/ha). For the same compound, the “Plant response rating, Cocklebur” value in assay [4] (250 g ai/ha) was 10; in assay [4] (500 g ai/ha), 15. The “Plant response rating (0 to 100), Bermudagrass” value in assay [5] (62 g ai/ha) and in assay [5] (125 g ai/ha) was 5 throughout. The “Plant response rating, Bermudagrass” value in assay [5] (250 g ai/ha) and in assay [5] (500 g ai/ha) was 5 throughout. Besides, the “Plant response rating (0 to 100), Surinam Grass” value in assay [6] (62 g ai/ha) and in assay [6] (125 g ai/ha) was 0 each time. For the same compound, the “Plant response rating, Surinam Grass” value in assay [6] (250 g ai/ha) and in assay [6] (500 g ai/ha) was 0 throughout.

In the case of `CCOC(OCC)(c1ccccc1)c1c[nH]nc1-c1cc(Cl)cc(Cl)c1` [Compound 14, 3-(3,5-dichlorophenyl)-4-(diethoxyphenylmethyl)-1H-pyrazole], the “Plant response rating (0 to 100), Oilseed Rape” value in assay [1] (Postemergence, 62 g ai/ha) is on record as 80; in assay [1] (Postemergence, 125 g ai/ha), 70. Moreover, the “Plant response rating, Oilseed Rape” value came out at 95 in assay [1] (setting [7]); 90 in assay [1] (setting [8]); 50 in assay [1] (Preemergence, 62 g ai/ha); 90 in assay [1] (Preemergence, 125 g ai/ha); 85 in assay [1] (Preemergence, 250 g ai/ha); 85 in assay [1] (Preemergence, 500 g ai/ha). Further, the “Plant response rating (0 to 100), Waterhemp” value amounted to 100 in assay [2] (Postemergence, 62 g ai/ha) and 95 in assay [2] (Postemergence, 125 g ai/ha). Further, the “Plant response rating, Waterhemp” value stood at 100 in assay [2] (setting [7]); 100 in assay [2] (setting [8]); 100 in assay [2] (Preemergence, 62 g ai/ha); 100 in assay [2] (Preemergence, 125 g ai/ha); 100 in assay [2] (Preemergence, 250 g ai/ha); 100 in assay [2] (Preemergence, 500 g ai/ha). In addition, in assay [3] (Postemergence, 62 g ai/ha), the “Plant response rating (0 to 100), Barnyardgrass” value was 0. The “Plant response rating, Barnyardgrass” value is recorded as 0 in assay [3] (setting [9]); 0 in assay [3] (setting [7]); 0 in assay [3] (setting [8]); 0 in assay [3] (Preemergence, 62 g ai/ha); 0 in assay [3] (Preemergence, 125 g ai/ha); 0 in assay [3] (Preemergence, 250 g ai/ha). Moreover, the “Plant response rating, Barnyardgrass” value in assay [3] (Preemergence, 500 g ai/ha) stood at 0.

Turning to `ON=C(c1ccccc1)c1c[nH]nc1-c1cc(Cl)cc(Cl)c1` [Compound 50], the “Plant response rating (0 to 100), Cocklebur” value is 5 in assay [4] (31 g ai/ha), 15 in assay [4] (62 g ai/ha) and 55 in assay [4] (125 g ai/ha). Also, in assay [4] (250 g ai/ha), the “Plant response rating, Cocklebur” value is 90. The “Plant response rating (0 to 100), Bermudagrass” value in assay [5] (31 g ai/ha), in assay [5] (62 g ai/ha) and in assay [5] (125 g ai/ha) was 0 in each case. In assay [5] (250 g ai/ha), the “Plant response rating, Bermudagrass” value is given as 0. The “Plant response rating (0 to 100), Surinam Grass” value in assay [6] (62 g ai/ha) and in assay [6] (125 g ai/ha) was 0 throughout. Further, in assay [6] (250 g ai/ha), the “Plant response rating, Surinam Grass” value is listed as 0.

Regarding `CCn1cc(C(=O)c2ccccc2)c(-c2cc(Br)cc(Br)c2)n1` [Compound 38], the figures for the “Plant response rating (0 to 100), Cocklebur” value in assay [4] (31 g ai/ha), in assay [4] (62 g ai/ha) and in assay [4] (125 g ai/ha) were 5, 10 and 15, respectively. In assay [4] (250 g ai/ha), the “Plant response rating, Cocklebur” value was determined as 15. Further, the “Plant response rating (0 to 100), Bermudagrass” value in assay [5] (31 g ai/ha), in assay [5] (62 g ai/ha) and in assay [5] (125 g ai/ha) was 0 in each case. Besides, the “Plant response rating, Bermudagrass” value in assay [5] (250 g ai/ha) is 0. Besides, the “Plant response rating (0 to 100), Surinam Grass” value in assay [6] (62 g ai/ha) and in assay [6] (125 g ai/ha) was 0 throughout. Also, the “Plant response rating, Surinam Grass” value in assay [6] (250 g ai/ha) stood at 0.

On to `O=C(c1cncc(F)c1)c1c[nH]nc1-c1cc(Cl)cc(Cl)c1` [Compound 19], for which the “Plant response rating (0 to 100), Oilseed Rape” value in assay [1] (Postemergence, 62 g ai/ha) is 0; in assay [1] (Postemergence, 125 g ai/ha), 0. For the same compound, the “Plant response rating, Oilseed Rape” value in assay [1] (setting [7]) stood at 5; in assay [1] (Preemergence, 31 g ai/ha), 0; in assay [1] (Preemergence, 62 g ai/ha), 0; in assay [1] (Preemergence, 125 g ai/ha) it was 80; in assay [1] (Preemergence, 250 g ai/ha) it was 80. For the same compound, the “Plant response rating (0 to 100), Waterhemp” value in assay [2] (Postemergence, 62 g ai/ha) is 65; in assay [2] (Postemergence, 125 g ai/ha), 80. Besides, the “Plant response rating, Waterhemp” value came to 95 in assay [2] (setting [7]); 100 in assay [2] (Preemergence, 62 g ai/ha); 100 in assay [2] (Preemergence, 125 g ai/ha); 100 in assay [2] (Preemergence, 250 g ai/ha). Besides, the “Plant response rating (0 to 100), Barnyardgrass” value in assay [3] (Postemergence, 31 g ai/ha) was 0; in assay [3] (Postemergence, 62 g ai/ha) it was 0. The “Plant response rating, Barnyardgrass” value in assay [3] (setting [9]) was found to be 0; in assay [3] (setting [7]) it was 0; in assay [3] (Preemergence, 31 g ai/ha), 0; in assay [3] (Preemergence, 62 g ai/ha), 0; in assay [3] (Preemergence, 125 g ai/ha), 0; in assay [3] (Preemergence, 250 g ai/ha), 0.

`CCOC(OCC)(c1cccs1)c1c[nH]nc1-c1cc(Cl)cc(Cl)c1` [Compound 27]: the “Plant response rating (0 to 100), Oilseed Rape” value in assay [1] (Postemergence, 62 g ai/ha) came out at 45; in assay [1] (Postemergence, 125 g ai/ha), 50. Moreover, the “Plant response rating, Oilseed Rape” value in assay [1] (setting [7]) is given as 50; in assay [1] (setting [8]) it was 45; in assay [1] (Preemergence, 62 g ai/ha) it was 70; in assay [1] (Preemergence, 125 g ai/ha) it was 90; in assay [1] (Preemergence, 250 g ai/ha), 85; in assay [1] (Preemergence, 500 g ai/ha), 90. The “Plant response rating (0 to 100), Waterhemp” value came to 95 in assay [2] (Postemergence, 62 g ai/ha) and 98 in assay [2] (Postemergence, 125 g ai/ha). Moreover, the “Plant response rating, Waterhemp” value in assay [2] (setting [7]) worked out at 98; in assay [2] (setting [8]), 100; in assay [2] (Preemergence, 62 g ai/ha), 100; in assay [2] (Preemergence, 125 g ai/ha) it was 100; in assay [2] (Preemergence, 250 g ai/ha), 100; in assay [2] (Preemergence, 500 g ai/ha), 100. For the same compound, the “Plant response rating (0 to 100), Barnyardgrass” value in assay [3] (Postemergence, 62 g ai/ha) worked out at 0. Besides, the “Plant response rating, Barnyardgrass” value was determined as 0 in assay [3] (setting [9]); 0 in assay [3] (setting [7]); 10 in assay [3] (setting [8]); 0 in assay [3] (Preemergence, 62 g ai/ha); 0 in assay [3] (Preemergence, 125 g ai/ha); 0 in assay [3] (Preemergence, 250 g ai/ha). In addition, the “Plant response rating, Barnyardgrass” value in assay [3] (Preemergence, 500 g ai/ha) was 0.
